Positions of bridges follow the written chain, without caps; N, C: chain ends. Residues, ends and D or L forms follow the SMILES beside them.
What was measured:
U87MG tumor xenograft = conditions: peptide conjugated to a small molecule fluorochrome or radiolabel; compared to weaker binding peptide conjugates including FN-RGD2 and c(RGDyK); cited from earlier work
[1] = mouse, serum
[2] = human serum, 37 °C, 24 h, reversed-phase HPLC
α5β1 integrin = α5β1 integrin (Homo sapiens, UniProt P05556+P08648); conditions: cited from earlier work
αvβ3 integrin = αvβ3 integrin (Homo sapiens, UniProt P05106+P06756); conditions: cited from earlier work
[3] = system: U87MG cell adhesion to fibronectin-coated plates; assay: Integrin-dependent cell adhesion assay; type: cell-based, human; conditions: U87MG cells, 2 h
[4] = molecular target: integrin αvβ3 (Homo sapiens) (UniProt P06756); conditions: cited from earlier work
integrin αvβ3 (Homo sapiens), sequence (P06756 31-1048, chain 1 of 2): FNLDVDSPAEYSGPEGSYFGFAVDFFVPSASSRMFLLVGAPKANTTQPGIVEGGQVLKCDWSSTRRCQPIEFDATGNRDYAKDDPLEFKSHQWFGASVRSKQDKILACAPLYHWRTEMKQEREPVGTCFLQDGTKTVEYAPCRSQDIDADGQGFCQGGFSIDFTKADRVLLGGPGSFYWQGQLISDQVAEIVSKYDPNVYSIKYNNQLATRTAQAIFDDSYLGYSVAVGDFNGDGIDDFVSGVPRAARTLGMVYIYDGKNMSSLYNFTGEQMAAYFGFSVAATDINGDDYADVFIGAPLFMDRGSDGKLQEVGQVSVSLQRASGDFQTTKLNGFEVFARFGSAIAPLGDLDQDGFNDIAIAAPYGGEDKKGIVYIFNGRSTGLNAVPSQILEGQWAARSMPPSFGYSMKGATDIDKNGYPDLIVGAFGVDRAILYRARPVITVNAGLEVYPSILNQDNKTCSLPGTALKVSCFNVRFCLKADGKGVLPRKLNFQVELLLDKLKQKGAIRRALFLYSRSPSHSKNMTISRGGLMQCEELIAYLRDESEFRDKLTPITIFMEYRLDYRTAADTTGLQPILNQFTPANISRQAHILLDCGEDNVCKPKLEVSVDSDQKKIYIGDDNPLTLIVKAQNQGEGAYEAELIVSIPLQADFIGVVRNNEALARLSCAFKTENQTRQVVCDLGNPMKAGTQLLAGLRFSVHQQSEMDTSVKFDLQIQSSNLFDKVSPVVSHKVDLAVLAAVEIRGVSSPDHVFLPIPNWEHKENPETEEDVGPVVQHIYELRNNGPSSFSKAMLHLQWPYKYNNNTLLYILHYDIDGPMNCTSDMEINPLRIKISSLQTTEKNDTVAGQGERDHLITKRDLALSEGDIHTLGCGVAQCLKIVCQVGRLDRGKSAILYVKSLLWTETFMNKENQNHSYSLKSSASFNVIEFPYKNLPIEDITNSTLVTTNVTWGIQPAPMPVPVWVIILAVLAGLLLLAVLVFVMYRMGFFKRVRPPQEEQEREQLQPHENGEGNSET
integrin αvβ3 (Homo sapiens), sequence (P05106 27-788, chain 2 of 2, further chain): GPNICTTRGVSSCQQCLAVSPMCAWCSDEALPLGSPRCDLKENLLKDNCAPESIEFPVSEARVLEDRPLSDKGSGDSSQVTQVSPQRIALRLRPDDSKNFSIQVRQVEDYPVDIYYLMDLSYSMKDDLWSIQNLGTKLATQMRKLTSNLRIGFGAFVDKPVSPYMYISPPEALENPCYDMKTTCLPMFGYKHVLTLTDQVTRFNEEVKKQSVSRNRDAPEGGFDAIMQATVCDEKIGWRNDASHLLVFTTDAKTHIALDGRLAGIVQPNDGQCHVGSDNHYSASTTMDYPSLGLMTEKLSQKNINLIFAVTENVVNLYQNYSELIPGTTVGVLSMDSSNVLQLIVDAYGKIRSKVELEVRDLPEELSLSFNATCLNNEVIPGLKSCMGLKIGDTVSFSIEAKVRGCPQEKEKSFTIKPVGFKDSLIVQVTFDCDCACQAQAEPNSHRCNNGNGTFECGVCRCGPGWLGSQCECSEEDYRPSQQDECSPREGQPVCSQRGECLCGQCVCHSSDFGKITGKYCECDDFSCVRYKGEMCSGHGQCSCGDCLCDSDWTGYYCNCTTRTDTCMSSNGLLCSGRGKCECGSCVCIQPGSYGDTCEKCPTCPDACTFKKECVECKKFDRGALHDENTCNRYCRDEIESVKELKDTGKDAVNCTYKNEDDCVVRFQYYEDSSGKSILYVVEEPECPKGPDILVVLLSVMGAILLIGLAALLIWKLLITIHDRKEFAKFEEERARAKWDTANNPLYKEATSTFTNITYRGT

αvβ3 integrin, sequence (P06756 31-889 limits assumed): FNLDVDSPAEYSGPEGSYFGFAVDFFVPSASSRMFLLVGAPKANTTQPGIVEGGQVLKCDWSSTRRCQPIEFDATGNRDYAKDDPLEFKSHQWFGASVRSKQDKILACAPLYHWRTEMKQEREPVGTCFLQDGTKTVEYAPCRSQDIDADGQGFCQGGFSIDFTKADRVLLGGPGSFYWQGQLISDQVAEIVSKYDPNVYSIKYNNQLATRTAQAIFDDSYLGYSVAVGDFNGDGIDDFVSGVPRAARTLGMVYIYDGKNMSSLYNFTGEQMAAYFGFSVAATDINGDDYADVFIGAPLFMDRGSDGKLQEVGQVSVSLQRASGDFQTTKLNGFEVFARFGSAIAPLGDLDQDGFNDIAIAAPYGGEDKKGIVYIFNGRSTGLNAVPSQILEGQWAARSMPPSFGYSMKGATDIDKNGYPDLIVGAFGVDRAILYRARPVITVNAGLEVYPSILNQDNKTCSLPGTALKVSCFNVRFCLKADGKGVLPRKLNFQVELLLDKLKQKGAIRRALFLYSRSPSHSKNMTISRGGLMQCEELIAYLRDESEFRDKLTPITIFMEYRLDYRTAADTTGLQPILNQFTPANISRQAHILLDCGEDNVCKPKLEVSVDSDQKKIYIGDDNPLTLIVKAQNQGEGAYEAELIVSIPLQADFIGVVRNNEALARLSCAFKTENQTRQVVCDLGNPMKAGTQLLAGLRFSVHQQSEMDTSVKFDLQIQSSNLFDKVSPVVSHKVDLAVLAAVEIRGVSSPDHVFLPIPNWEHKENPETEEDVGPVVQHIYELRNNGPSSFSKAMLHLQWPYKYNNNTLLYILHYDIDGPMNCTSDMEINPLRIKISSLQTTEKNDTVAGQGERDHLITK
αvβ3 integrin, sequence (P06756 891-1048 partner limits assumed): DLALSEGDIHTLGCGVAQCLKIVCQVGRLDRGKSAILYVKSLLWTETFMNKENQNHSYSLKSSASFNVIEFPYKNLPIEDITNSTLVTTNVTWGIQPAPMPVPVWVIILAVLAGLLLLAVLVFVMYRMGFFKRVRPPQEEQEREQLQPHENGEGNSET
αvβ3 integrin, sequence (P05106 27-788): as the sequence (P05106 27-788, chain 2 of 2, further chain) above
Echistatin, sequence (P17347 131-179): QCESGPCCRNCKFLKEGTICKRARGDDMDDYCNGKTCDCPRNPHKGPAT
α5β1 integrin, sequence (P08648 42-894 limits assumed): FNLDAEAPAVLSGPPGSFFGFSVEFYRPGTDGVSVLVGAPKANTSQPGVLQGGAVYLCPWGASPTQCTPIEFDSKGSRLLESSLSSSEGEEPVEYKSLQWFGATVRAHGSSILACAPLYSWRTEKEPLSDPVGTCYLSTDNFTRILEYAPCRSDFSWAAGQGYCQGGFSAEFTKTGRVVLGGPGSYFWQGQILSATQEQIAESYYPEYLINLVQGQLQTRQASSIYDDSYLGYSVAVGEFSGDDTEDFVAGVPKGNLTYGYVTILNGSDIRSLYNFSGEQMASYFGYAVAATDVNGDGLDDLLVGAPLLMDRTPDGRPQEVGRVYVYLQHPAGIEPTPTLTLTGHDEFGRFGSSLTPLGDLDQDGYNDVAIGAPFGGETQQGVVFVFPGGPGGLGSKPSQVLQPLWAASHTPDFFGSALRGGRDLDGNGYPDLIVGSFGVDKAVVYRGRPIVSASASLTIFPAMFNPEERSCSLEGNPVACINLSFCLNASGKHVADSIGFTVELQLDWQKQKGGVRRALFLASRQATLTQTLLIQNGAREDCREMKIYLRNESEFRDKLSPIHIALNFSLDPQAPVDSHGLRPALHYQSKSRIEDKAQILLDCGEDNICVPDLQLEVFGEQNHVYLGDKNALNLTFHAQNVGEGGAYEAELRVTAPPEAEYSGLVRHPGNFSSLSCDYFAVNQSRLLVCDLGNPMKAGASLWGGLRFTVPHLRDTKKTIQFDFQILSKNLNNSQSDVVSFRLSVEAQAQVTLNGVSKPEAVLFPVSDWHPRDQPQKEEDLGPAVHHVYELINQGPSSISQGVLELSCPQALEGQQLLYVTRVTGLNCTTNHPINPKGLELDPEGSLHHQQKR
α5β1 integrin, sequence (P08648 895-1049 partner limits assumed): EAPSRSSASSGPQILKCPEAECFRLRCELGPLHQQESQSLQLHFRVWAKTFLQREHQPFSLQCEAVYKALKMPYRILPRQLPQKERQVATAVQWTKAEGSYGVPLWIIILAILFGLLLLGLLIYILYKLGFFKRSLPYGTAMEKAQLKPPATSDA
α5β1 integrin, sequence (P05556 21-798): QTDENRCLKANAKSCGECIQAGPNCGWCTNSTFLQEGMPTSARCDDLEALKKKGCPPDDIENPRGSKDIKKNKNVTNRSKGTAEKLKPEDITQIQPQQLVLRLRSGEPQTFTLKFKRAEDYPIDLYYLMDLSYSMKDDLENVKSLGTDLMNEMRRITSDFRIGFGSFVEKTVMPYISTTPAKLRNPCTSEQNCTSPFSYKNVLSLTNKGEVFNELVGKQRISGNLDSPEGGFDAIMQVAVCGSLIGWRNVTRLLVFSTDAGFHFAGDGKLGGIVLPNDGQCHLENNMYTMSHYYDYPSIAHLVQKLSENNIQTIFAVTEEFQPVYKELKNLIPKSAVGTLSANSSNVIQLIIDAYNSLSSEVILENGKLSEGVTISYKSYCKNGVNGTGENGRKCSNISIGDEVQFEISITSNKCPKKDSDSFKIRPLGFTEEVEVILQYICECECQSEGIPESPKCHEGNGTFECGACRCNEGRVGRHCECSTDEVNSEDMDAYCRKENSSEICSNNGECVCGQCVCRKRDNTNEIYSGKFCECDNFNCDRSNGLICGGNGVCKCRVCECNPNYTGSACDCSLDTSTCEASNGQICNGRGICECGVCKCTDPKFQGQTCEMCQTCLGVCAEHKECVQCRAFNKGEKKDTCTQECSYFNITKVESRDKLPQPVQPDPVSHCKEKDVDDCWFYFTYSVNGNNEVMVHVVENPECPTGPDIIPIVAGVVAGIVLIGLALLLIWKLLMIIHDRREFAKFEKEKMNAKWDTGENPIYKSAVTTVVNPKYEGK

Molecule: CC(C)C[C@@H]1NC(=O)[C@@H]2CSSC[C@@H](C(=O)NCC(=O)O)NC(=O)[C@H](Cc3ccccc3)NC(=O)CNC(=O)[C@H](CC(N)=O)NC(=O)[C@@H]3CCCN3C(=O)CNC(=O)[C@@H]3CSSC[C@H](NC(=O)[C@H](CO)NC(=O)[C@H]([C@@H](C)O)NC(=O)[C@@H]4CCCN4C(=O)[C@H](C)NC(=O)[C@H](Cc4c[nH]c5ccccc45)NC(=O)[C@H](CC(=O)O)NC(=O)CNC(=O)[C@H](CCCNC(=N)N)NC(=O)CNC(=O)[C@H](CCC(N)=O)NC(=O)[C@@H]4CCCN4C(=O)[C@@H](NC(=O)CN)CSSC[C@H](NC(=O)CNC(=O)[C@H](C)NC1=O)C(=O)N[C@@H](C(C)C)C(=O)N3)C(=O)N[C@@H](CO)C(=O)N[C@@H](CCC(N)=O)C(=O)N[C@@H](CC(=O)O)C(=O)N[C@@H](CO)C(=O)N[C@@H](CC(=O)O)C(=O)N2 [2.5D] (H-GCPQGRGDWAPTSCSQDSDCLAGCVCGPNGFCG-OH; disulfide 2-24, 14-26, 20-32)
- tumor uptake (in words) (U87MG tumor xenograft): significant increase in tumor uptake
- remaining at 24 h [1]: ~90%
- intact peptide remaining [2]: approximately 90%

Molecule: CC(C)C[C@@H]1NC(=O)[C@@H]2CSSC[C@@H](C(=O)NCC(=O)O)NC(=O)[C@H](Cc3ccccc3)NC(=O)CNC(=O)[C@H](CC(N)=O)NC(=O)[C@@H]3CCCN3C(=O)CNC(=O)[C@@H]3CSSC[C@H](NC(=O)[C@H]([C@@H](C)O)NC(=O)[C@H](CC(C)C)NC(=O)[C@@H]4CCCN4C(=O)[C@@H]4CCCN4C(=O)[C@H](CC(N)=O)NC(=O)[C@H](CC(=O)O)NC(=O)CNC(=O)[C@H](CCCNC(=N)N)NC(=O)[C@@H]4CCCN4C(=O)[C@H](CCCNC(=N)N)NC(=O)[C@@H]4CCCN4C(=O)[C@@H](NC(=O)CN)CSSC[C@H](NC(=O)CNC(=O)[C@H](C)NC1=O)C(=O)N[C@@H](C(C)C)C(=O)N3)C(=O)N[C@@H](CO)C(=O)N[C@@H](CCC(N)=O)C(=O)N[C@@H](CC(=O)O)C(=O)N[C@@H](CO)C(=O)N[C@@H](CC(=O)O)C(=O)N2 [2.5F] (H-GCPRPRGDNPPLTCSQDSDCLAGCVCGPNGFCG-OH; disulfide 2-24, 14-26, 20-32)
- tumor uptake (in words) (U87MG tumor xenograft): significant increase in tumor uptake

Molecule: Ac-PHSCN-NH2 [ATN-161]
- binding affinity to α5β1 integrin (in words) (α5β1 integrin): micromolar affinity
- binding affinity to αvβ3 integrin (in words) (αvβ3 integrin): micromolar affinity

Molecule: Echistatin
- block of U87MG cell adhesion to fibronectin-coated plates (in words) [3]: able to block

Molecule: Echistatin (from UniProt P17347)
- Kd [4]: 360 pM

— paper PMC5792193 (Proteins, 2009)
